Results taken from ChEMBL document CHEMBL1201862, “PubChem BioAssay data set” (2004).
Active and inactive are the calls of the source.

Assays:
HEK293 [1] = assay: membrane integrity loss in HEK cells – cell-based, fluorescence, cytotoxicity control for IDE activator project, dose response (AID 588440); type: functional; conditions: Homo sapiens;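 also: cytotoxicity by LDH release measuring loss of membrane integrity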
Insulin-degrading enzyme [2] = biological target: T1, Insulin-degrading enzyme (Homo sapiens, UniProt P14735); assay: cellular IDE activation of Abeta substrate cleavage – fluorescence polarization, HEK cells, dose response (AID 588439); type: functional, cell-based
T1 sequence (P14735 whole entry): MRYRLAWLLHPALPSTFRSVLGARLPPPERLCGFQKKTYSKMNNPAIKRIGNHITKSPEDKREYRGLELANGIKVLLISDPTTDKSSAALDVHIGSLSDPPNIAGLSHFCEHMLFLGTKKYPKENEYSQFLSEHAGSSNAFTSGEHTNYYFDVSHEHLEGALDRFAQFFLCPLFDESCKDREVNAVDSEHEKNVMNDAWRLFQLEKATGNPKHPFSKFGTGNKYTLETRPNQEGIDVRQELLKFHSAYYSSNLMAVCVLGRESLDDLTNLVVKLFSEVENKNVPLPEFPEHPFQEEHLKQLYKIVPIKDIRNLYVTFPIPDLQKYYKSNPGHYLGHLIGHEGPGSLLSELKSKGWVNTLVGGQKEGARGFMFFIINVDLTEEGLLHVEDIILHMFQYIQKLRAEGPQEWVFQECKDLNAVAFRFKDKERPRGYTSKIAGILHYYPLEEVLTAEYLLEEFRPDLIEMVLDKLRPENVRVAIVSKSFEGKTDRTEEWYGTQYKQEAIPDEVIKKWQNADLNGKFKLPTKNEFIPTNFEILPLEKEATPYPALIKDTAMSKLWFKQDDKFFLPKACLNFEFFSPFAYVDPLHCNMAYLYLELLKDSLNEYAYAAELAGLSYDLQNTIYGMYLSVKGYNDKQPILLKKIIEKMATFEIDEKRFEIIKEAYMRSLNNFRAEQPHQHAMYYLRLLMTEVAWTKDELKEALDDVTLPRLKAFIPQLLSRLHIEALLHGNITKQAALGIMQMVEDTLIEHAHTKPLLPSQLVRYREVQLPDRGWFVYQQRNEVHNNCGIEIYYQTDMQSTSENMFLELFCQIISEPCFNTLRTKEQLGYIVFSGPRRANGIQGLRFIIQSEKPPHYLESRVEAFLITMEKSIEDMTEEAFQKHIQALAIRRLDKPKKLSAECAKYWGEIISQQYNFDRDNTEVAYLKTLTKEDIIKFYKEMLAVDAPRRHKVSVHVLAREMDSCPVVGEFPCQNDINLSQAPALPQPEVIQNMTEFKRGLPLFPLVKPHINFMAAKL

Insulin-degrading enzyme [3] = biological target: T1, Insulin-degrading enzyme; assay: recombinant IDE activation, cell-free – biochemical, fluorescence polarization, counter-screen for IDE activator project, dose response (AID 588681)
HEK293 [4] = assay: optical interference in Abeta FP readout, dose response, artefact control for IDE activator project, biochemical, fluorescence polarization (AID 588442); type: functional, cell-based; conditions: Homo sapiens
[5] = biological target: T2, Sentrin-specific protease 8 (Homo sapiens, UniProt Q96LD8); assay: inhibition of human SENP8 cleavage activity – biochemical, luminescence, SAR follow-up (AID 504501); type: functional
T2 sequence (Q96LD8 whole entry): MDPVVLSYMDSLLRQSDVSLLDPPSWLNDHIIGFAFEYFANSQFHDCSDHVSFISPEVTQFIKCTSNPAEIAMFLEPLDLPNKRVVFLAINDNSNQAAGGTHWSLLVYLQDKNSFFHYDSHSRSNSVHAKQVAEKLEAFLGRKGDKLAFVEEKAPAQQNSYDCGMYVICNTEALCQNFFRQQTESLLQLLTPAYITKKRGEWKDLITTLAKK

[6] = biological target: T3, Sentrin-specific protease 7 (Homo sapiens, UniProt Q9BQF6); assay: inhibition of human SENP7 cleavage activity – biochemical, luminescence, SAR follow-up (AID 504497); type: functional
T3 sequence (Q9BQF6 whole entry): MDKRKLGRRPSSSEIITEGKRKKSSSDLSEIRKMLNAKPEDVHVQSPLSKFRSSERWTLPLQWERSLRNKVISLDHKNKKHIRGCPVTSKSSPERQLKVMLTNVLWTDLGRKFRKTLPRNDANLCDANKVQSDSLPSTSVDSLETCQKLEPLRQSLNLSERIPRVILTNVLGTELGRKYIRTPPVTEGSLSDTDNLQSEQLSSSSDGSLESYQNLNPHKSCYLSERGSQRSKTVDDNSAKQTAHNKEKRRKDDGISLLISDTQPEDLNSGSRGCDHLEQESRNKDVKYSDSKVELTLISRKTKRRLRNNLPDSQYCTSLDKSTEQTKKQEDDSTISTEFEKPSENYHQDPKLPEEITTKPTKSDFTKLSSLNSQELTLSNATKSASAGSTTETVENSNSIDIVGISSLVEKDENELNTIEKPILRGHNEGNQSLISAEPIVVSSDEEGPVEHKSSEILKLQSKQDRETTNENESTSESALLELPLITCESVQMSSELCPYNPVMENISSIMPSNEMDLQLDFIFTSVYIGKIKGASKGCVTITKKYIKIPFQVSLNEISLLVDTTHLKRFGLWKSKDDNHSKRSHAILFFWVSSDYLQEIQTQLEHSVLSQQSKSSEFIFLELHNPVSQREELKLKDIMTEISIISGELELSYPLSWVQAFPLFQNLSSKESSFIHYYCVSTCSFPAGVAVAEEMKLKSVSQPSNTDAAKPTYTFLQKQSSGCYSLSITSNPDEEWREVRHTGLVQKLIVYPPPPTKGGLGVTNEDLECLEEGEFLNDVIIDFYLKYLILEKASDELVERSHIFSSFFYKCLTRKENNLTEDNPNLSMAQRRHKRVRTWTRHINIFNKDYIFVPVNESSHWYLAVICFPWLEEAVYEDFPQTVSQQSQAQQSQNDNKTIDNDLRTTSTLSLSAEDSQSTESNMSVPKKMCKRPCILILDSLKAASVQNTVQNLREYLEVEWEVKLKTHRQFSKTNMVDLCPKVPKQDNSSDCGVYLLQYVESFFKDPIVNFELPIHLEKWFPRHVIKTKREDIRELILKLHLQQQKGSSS

Caspase-3 = biological target: T4, Caspase-3 (Homo sapiens, UniProt P42574); assay: SAR Analysis of small molecule inhibitors of Sentrin-specific proteases (SENPs) using a Caspase-3 Selectivity assay. [Related pubchem assays (depositor defined):AID2540, AID2599, AID434973, AID489001]; type: functional
T4 sequence (P42574 whole entry): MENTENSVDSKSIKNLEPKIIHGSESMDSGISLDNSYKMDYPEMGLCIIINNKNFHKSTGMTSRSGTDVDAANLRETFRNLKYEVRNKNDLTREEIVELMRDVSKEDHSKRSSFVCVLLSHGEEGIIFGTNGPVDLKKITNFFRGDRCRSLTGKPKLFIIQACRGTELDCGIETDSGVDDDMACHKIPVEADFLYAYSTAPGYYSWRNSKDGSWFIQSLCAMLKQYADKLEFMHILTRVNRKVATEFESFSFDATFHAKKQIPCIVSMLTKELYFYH

[7] = biological target: T5, Sentrin-specific protease 6 (Homo sapiens, UniProt Q9GZR1); assay: SAR Analysis of small molecule inhibitors of Sentrin-specific protease 6 (SENP6) using a Luminescent assay. [Related pubchem assays (depositor defined):AID2582, AID2599]; type: functional
T5 sequence (Q9GZR1 whole entry): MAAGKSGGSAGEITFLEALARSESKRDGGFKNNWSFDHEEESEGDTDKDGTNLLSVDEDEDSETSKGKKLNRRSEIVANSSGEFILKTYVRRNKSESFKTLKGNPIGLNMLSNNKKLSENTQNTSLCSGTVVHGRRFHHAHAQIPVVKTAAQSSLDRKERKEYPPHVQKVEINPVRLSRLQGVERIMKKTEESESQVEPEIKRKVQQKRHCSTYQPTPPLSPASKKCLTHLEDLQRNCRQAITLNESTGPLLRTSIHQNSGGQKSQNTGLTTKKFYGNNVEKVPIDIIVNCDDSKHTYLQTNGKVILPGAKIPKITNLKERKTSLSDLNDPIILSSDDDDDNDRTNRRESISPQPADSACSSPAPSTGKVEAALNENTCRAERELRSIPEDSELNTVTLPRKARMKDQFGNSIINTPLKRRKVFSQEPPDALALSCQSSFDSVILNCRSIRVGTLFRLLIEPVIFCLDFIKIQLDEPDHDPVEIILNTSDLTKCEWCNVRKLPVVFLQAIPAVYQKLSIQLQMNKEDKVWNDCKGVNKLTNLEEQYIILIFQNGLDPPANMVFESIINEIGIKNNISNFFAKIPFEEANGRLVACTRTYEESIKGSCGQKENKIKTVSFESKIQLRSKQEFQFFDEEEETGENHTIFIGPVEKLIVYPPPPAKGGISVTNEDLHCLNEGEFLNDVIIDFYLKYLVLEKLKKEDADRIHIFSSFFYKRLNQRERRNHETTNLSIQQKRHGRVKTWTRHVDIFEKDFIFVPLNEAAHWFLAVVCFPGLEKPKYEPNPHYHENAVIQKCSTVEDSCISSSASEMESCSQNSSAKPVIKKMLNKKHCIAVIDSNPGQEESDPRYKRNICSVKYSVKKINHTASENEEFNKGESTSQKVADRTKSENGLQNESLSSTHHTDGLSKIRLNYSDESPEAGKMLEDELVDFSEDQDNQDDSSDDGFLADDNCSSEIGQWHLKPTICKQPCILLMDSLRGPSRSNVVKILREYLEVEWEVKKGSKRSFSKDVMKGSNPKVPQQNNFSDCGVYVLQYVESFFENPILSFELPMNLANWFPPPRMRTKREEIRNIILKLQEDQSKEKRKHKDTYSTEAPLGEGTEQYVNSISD

[8] = biological target: T2, Sentrin-specific protease 8; type: functional
[9] = biological target: T2, Sentrin-specific protease 8; type: functional; remark: listed apart in the source
[10] = biological target: Hepatocyte nuclear factor 4-alpha (Homo sapiens, UniProt P41235); type: functional, cell-based;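 also: biochemical luminescence-based dose-response counterscreen measuring inhibition of HNF4 dimerization, run alongside a screen for blockers of ABHD5–perilipin-5 interaction; split luciferase complementation of HNF4 fusion proteins in cell lysate measuring dimerization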
[11] = biological target: T6, Probable nicotinate-nucleotide adenylyltransferase (Staphylococcus aureus (strain N315), UniProt P65502); type: functional, Staphylococcus aureus subsp. aureus N315;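 as to IC50 Mean: confirmatory dose-response retesting of NadD inhibitor hits first found in an ultra-high-throughput screen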
HEK293 [12] = assay: inhibition of NOD1-driven NF-kB reporter – cell-based, luminescence, uHTS, primary screen (AID 1578); type: functional; conditions: Homo sapiens
HEK293 [13] = assay: cells; type: functional, cell-based; conditions: Homo sapiens
HEK293 [14] = assay: cells; type: functional, cell-based; conditions: Homo sapiens; remark: listed apart in the source
[15] = biological target: T6, Probable nicotinate-nucleotide adenylyltransferase; type: functional, Staphylococcus aureus subsp. aureus N315; conditions: read-out: IC50_Mean
HEK293 [16] = assay: NOD2 signaling inhibitors in MDP-stimulated cells, cell-based, uHTS, luminescence (AID 2001); type: functional; conditions: Homo sapiens
HEK293 [17] = assay: cells; type: functional, cell-based; conditions: Homo sapiens; remark: listed apart in the source
[18] = biological target: Nucleotide-binding oligomerization domain-containing protein 2 (Homo sapiens, UniProt Q9HC29); assay: inhibition of NOD2-driven NF-kB reporter – cell-based, luminescence, uHTS, HEK293 (AID 1566); type: functional
Sequence of Nucleotide-binding oligomerization domain-containing protein 2 (Q9HC29 whole entry, the tested form may be a part): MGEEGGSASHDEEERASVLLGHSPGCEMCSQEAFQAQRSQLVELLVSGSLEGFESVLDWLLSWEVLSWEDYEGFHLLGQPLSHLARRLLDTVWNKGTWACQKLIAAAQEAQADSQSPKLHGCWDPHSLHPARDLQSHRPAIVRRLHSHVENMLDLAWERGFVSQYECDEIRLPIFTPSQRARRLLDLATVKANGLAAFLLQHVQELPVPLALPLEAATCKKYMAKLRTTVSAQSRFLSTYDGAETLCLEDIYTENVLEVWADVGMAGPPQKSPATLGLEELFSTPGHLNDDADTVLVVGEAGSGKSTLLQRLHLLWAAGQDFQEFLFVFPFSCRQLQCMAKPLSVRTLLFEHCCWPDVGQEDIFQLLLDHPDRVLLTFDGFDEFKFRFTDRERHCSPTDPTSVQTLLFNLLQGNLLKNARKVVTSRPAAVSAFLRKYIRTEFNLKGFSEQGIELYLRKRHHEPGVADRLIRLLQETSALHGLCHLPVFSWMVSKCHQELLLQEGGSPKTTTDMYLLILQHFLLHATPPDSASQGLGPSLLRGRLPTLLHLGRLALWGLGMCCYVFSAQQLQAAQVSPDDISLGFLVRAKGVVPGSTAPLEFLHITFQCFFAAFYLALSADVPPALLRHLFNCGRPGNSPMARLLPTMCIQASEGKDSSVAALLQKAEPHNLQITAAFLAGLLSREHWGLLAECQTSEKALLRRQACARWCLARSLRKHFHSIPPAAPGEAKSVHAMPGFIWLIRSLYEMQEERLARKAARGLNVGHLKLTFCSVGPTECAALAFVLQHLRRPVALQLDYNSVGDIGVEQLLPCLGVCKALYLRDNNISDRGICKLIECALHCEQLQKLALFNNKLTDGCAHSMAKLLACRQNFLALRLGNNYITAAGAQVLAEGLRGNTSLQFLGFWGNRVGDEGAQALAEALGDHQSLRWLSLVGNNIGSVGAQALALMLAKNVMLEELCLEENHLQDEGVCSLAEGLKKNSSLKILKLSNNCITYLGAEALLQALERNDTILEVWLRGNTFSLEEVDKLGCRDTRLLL

T6 sequence (P65502 whole entry): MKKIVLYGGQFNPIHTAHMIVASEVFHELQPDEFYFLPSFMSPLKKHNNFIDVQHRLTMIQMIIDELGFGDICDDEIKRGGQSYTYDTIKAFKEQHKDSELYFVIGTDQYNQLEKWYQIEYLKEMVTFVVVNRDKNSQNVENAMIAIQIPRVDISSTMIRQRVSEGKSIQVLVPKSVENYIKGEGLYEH
Sequence of Hepatocyte nuclear factor 4-alpha (P41235 whole entry, the tested form may be a part): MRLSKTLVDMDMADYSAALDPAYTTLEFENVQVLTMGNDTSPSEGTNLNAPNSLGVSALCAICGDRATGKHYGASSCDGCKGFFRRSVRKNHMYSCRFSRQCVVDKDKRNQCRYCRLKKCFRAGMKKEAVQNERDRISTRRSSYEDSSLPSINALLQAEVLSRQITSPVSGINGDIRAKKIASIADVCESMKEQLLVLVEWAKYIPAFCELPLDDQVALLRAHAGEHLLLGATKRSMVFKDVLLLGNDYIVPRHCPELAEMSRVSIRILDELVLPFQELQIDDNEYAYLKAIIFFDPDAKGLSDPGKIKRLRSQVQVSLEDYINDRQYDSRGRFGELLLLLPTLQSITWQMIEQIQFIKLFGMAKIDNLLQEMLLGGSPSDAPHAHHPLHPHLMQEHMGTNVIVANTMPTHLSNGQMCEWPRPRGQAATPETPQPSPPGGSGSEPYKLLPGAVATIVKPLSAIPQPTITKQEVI

In the case of O=C(c1cnn(C(=O)c2ccco2)c1)c1cc(F)ccc1O, the IC50 (HEK293 [1]) is reported as > 89.1 µM (inactive), the EC50 (Insulin-degrading enzyme [2]) is reported as > 54.7 µM (inactive) and the EC50 (Insulin-degrading enzyme [3]) is reported as > 54.7 µM (inactive). For the same molecule, the EC50 (HEK293 [4]) was > 54.7 µM (inactive).
With Cc1ccsc1C(=O)Nc1nc2ccc(Cl)cc2s1 the IC50 [5] was 0.62 µM (active), the IC50 [6] was 0.75 µM (active) and the IC50 (Caspase-3) was 0.48 µM (active). For the same molecule, the IC50 [7] was 0.66 µM (active).
With COc1ccccc1NC(=O)c1cn(C)c(=O)c2cc(OC)c(OC)cc12 the IC50 [8] was 10.2 µM (active) and the IC50 [9] was 48.1 µM (active).
For C(=C\c1nc(-c2ccc(N3CCOCC3)cc2)no1)/c1ccccc1, the IC50 [5] was > 99 µM (inactive), the IC50 [6] was > 99 µM (inactive) and the IC50 (Caspase-3) was > 99 µM (inactive). For the same molecule, the IC50 [7] was > 99 µM (inactive).
With COc1ccc(C2C(C#N)=C(N)Oc3c2c(C)nn3-c2ccccc2)cc1 (stereo unspecified) the IC50 [5] was > 99 µM (inactive), the IC50 [6] was 63 µM (active) and the IC50 (Caspase-3) was > 99 µM (inactive). For the same molecule, the IC50 [7] was 32.4 µM (active).
In the case of O=C1CC(c2ccc(Cl)cc2)Oc2ccc(Cl)cc21 (stereo unspecified), the IC50 [10] is reported as 6.14 µM (active).
In the case of Cc1ccc(NS(=O)(=O)c2cc(NC(=O)c3ccc4c(c3)NC(=O)CS4)ccc2Cl)c(C)c1, the IC50 [11] is reported as 19.5 µM (active), the EC50 (HEK293 [12]) is reported as 6.38 µM (active) and the IC50 (HEK293 [13]) is reported as 11.5 µM (active). The IC50 (HEK293 [14]) was > 20 µM (inactive), the IC50 [15] was 48.8 µM (active) and the IC50 (HEK293 [16]) was 7.17 µM (inactive). The IC50 (HEK293 [17]) was 6.3 µM (active) and the EC50 [18] was 14.3 µM (active).
For CC(OC(=O)c1ccc(Cl)nc1)C(=O)NC1(C#N)CCCCC1 (stereo unspecified), the IC50 (HEK293 [1]) was > 89.3 µM (inactive), the EC50 (Insulin-degrading enzyme [2]) was > 54.7 µM (inactive) and the EC50 (Insulin-degrading enzyme [3]) was > 54.7 µM (inactive). For the same molecule, the EC50 (HEK293 [4]) was > 54.7 µM (inactive).
